Source: patent publication US10245261B2, “Substituted indol-5-ol derivatives and their therapeutic applications” (NantBioScience, Inc., priority 2013, dated 2019)

Experiments:
Experiment in all cases: KinaseProfiler kinase assay
Type in all cases: biochemical
Abl(h) = Abl(h) (Homo sapiens, UniProt P00519)
KDR(h) = KDR(h) (Homo sapiens, UniProt P35968)
Aurora-A(h) = biological target: T1, Aurora-A(h) (Homo sapiens, UniProt O14965); conditions: read-out: % Inhibition @1 μM Auroro-A
T1 sequence (O14965 1-403): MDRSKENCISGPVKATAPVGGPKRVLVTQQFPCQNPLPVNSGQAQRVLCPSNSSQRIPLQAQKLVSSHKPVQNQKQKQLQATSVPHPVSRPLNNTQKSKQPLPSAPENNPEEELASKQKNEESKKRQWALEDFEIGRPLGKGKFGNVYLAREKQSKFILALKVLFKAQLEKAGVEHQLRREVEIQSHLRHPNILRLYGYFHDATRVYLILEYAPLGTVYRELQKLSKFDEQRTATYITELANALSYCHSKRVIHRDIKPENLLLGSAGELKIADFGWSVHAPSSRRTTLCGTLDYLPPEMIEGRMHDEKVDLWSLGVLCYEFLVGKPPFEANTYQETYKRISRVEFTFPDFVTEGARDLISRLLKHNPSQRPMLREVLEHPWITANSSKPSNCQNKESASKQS
Protocol: (§1) This example tests the inhibitory properties of representative compounds of the invention in c-Src kinase, Aurora-A kinase, Flt3 kinase, Ret kinase and TrkA Kinase assays (see, Daniele Fancelli et al, J. Med. Chem., 2006, 49 (24), pp 7247-7251). The KinaseProfiler™ Service Assay Protocols (Millipore) was used to test the kinase inhibiting activity of novel compounds from this invention. To do this, the buffer composition was as: 20 mM MOPS, 1 mM EDTA, 0.01% Brij-35, 5% Glycerol, 0.1% β-mercaptoethanol, 1 mg/mL BSA. Test compounds were initially dissolved in DMSO at the desired concentration, then serially diluted to the kinase assay buffer. In a final reaction volume of 25 μL, Aurora-A(h) (5-10 mU) is incubated with 8 mM MOPS pH 7.0, 0.2 mM EDTA, 200 μM LRRASLG (Kemptide), 10 mM MgAcetate and [γ^33P-ATP]. The reaction was initiated by the addition of the MgATP mix. After incubation for 40 minute at room temperature, the reaction was stopped by addition of 5 μL of a 3% phosphoric acid solution. 10 μL of the reaction was then spotted onto a P30 filtermat and washed three times for 5 minutes in 50 mM phosphoric acid and once in methanol prior to drying and scintillation counting. Wells containing substrate but no kinase and wells containing a phosphopeptide control were used to set 0% and 100% phosphorylation value, respectively.
(§2) The Kinase Hotspot℠ kinase assay was also used to test the compounds for IC50 or % inhibitions (Reaction Biology Corp.). Inhibitory IC50 values were determined by titration of compound at the optimal kinase concentration (Kinase EC50).

Ret(h) = Ret(h) (Homo sapiens, UniProt P07949)
Protocol: as §1, §2

cSRC(h) = cSRC(h) (Homo sapiens, UniProt P12931)
Protocol: as §1, §2

Flt3(h) = biological target: T2, Flt3(h) (Homo sapiens, UniProt P36888)
T2 sequence (P36888 27-993): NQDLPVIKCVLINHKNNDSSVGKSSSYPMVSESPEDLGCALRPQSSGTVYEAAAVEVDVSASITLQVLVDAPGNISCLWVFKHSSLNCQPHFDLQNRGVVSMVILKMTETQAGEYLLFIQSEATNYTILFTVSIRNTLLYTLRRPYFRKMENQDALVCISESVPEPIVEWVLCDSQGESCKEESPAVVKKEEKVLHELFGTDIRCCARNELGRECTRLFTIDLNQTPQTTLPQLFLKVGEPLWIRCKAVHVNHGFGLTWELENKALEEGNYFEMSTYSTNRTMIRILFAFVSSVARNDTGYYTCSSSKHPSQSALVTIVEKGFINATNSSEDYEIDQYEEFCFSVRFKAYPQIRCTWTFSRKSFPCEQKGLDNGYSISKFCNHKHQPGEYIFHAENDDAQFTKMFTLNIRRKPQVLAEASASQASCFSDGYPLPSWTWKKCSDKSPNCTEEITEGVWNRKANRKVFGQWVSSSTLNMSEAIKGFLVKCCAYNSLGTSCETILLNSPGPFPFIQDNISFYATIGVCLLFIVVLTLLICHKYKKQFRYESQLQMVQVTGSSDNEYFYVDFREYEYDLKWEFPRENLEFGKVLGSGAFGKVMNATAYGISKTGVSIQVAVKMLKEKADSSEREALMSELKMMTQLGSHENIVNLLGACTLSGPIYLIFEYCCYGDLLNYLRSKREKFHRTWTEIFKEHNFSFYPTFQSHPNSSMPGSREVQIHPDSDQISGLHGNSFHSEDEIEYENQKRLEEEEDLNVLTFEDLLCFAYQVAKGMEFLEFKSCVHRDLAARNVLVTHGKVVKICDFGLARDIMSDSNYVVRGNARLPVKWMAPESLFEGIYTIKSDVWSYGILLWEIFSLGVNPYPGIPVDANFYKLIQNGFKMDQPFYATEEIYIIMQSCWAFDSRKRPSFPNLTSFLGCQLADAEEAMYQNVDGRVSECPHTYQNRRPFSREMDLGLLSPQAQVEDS
Protocol: as §1, §2

Sequence of cSRC(h) (P12931 whole entry): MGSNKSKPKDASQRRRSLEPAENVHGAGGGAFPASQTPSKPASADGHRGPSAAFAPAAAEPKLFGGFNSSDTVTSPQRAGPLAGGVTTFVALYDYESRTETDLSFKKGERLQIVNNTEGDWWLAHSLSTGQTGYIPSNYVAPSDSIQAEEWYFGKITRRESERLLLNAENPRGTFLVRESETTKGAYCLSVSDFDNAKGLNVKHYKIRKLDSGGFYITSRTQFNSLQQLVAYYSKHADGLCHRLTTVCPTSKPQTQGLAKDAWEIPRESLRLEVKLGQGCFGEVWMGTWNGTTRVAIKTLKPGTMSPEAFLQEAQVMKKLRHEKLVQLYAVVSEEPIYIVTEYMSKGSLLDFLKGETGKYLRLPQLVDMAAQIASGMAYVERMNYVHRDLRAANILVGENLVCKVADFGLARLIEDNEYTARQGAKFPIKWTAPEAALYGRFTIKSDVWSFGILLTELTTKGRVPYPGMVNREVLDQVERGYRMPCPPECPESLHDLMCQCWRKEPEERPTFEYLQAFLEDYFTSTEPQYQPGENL
Sequence of Abl(h) (P00519 whole entry): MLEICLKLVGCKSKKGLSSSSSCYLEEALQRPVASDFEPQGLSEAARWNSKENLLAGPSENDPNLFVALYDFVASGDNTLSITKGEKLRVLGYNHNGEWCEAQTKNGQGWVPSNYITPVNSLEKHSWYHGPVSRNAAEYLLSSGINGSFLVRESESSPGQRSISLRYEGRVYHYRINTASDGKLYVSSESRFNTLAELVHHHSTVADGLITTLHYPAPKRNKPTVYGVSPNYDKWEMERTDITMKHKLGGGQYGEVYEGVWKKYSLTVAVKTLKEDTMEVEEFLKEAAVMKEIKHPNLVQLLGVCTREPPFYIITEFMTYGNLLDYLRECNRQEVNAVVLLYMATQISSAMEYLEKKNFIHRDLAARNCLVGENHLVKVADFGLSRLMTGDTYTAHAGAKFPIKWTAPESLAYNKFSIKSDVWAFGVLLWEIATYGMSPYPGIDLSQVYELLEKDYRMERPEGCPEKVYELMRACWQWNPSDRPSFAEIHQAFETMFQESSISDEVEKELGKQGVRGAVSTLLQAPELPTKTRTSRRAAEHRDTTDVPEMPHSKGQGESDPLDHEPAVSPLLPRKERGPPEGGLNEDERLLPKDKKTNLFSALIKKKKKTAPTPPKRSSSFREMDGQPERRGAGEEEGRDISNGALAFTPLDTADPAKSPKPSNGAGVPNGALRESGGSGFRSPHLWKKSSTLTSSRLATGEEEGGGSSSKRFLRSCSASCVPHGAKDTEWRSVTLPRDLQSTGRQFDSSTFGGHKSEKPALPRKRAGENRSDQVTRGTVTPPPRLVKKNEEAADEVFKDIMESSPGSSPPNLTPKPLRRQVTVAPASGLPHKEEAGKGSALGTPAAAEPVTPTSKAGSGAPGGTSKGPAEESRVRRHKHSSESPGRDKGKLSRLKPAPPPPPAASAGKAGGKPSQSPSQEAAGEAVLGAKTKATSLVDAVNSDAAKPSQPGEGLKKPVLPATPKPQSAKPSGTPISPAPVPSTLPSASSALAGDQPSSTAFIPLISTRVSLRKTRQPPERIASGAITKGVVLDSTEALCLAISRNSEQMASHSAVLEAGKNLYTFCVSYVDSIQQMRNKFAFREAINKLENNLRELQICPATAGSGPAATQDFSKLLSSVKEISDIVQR
Sequence of Ret(h) (P07949 29-1114): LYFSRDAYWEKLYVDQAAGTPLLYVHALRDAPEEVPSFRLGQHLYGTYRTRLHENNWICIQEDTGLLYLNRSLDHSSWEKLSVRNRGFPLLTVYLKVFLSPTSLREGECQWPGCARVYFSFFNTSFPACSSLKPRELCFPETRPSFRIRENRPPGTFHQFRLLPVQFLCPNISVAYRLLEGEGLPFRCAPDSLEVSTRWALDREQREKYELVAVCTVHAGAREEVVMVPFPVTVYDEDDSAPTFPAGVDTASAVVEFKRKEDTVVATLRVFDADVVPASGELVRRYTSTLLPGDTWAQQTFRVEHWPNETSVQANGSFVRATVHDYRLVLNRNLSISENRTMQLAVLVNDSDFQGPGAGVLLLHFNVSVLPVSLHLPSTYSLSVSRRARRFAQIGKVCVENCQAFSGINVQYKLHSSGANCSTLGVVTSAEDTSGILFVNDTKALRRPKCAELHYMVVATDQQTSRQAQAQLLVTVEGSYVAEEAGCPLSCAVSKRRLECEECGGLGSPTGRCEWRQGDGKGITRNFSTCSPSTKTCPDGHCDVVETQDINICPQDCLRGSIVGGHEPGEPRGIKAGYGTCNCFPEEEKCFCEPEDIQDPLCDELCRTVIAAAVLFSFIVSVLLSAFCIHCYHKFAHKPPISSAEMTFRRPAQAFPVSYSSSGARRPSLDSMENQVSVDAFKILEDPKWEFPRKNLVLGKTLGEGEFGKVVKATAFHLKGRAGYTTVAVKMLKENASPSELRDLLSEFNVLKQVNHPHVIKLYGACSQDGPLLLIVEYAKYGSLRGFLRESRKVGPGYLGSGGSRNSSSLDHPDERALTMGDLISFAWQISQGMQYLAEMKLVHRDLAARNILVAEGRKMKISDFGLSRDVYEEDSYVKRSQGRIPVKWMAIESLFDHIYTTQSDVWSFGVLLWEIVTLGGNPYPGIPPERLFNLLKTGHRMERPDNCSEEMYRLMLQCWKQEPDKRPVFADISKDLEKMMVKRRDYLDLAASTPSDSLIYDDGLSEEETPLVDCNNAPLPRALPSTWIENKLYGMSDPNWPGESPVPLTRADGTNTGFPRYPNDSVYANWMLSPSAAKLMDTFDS
Sequence of KDR(h) (P35968 20-1356): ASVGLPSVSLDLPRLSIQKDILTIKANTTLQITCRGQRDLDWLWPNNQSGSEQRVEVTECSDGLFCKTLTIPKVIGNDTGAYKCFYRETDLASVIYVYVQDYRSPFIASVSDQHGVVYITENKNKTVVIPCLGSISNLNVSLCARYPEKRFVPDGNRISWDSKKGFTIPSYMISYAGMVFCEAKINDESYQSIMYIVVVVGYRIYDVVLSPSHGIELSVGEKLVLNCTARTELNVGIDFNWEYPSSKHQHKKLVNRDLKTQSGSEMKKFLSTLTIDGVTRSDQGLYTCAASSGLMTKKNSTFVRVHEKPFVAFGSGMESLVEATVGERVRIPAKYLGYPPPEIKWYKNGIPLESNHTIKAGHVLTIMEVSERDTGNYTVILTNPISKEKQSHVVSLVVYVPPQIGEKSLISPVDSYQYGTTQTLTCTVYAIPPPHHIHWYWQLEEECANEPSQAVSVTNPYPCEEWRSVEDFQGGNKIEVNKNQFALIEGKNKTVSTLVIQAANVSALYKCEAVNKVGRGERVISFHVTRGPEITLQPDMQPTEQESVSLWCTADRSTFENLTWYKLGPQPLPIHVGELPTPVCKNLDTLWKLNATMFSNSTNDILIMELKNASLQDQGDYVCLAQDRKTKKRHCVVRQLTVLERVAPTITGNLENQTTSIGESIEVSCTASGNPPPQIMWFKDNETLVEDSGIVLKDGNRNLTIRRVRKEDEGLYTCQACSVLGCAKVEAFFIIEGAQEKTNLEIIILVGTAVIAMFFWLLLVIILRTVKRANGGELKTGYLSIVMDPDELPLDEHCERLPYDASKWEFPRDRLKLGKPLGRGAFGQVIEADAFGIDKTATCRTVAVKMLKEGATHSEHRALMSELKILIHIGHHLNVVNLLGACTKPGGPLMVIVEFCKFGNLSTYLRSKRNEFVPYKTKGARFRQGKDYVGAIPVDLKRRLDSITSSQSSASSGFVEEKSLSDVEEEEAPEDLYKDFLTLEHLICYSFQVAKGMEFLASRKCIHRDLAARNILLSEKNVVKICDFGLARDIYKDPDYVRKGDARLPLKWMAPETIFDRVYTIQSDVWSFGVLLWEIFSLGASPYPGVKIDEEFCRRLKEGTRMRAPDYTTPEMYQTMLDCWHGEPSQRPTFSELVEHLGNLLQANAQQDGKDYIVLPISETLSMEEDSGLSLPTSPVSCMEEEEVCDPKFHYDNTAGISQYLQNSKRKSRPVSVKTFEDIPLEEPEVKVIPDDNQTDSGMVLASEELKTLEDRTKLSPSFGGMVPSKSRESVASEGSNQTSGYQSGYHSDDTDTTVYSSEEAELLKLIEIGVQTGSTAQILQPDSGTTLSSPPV

inhibition at 1 µM (Abl(h)) [%] | inhibition at 1 µM (KDR(h)) [%] | inhibition at 1 µM (Aurora-A(h)) [%] | inhibition at 1 µM (Ret(h)) [%] | inhibition at 1 µM (cSRC(h)) [%] | inhibition at 1 µM (Flt3(h)) [%] | SMILES
109 | 93 | 101 | 101 | 100 | 100 | Cc1cc2c(F)c(Oc3nc(Nc4cc(C5CC5)[nH]n4)cc(N4CCN(c5cccnc5)CC4)n3)ccc2[nH]1 [Compound 26]
111 | 95 | 97 | 102 | 101 | 99 | C/C=C/c1cc(Nc2cc(N3CCC(OC)C3)nc(Oc3ccc4[nH]c(C)cc4c3F)n2)n[nH]1 (stereo not drawn) [Compound 60]
113 | 91 | 101 | 102 | 103 | 102 | C/C=C/c1cc(Nc2cc(N3CCN(CC)CC3)nc(Oc3cc(F)c4[nH]c(C)cc4c3F)n2)n[nH]1 [Compound 99]
110 | 94 | 100 | 101 | 99 | 100 | Cc1cc2c(F)c(Oc3nc(Nc4cc(C5CC5)[nH]n4)cc(N4CCOC(CN(C)C)C4)n3)ccc2[nH]1 (stereo not drawn) [Compound 30]
111 | 95 | 102 | 102 | 101 | 100 | C/C=C/c1cc(Nc2cc(N3CCC(OC)C3)nc(Oc3cc(F)c4[nH]c(C)cc4c3F)n2)n[nH]1 (stereo not drawn) [Compound 93]
111 | 96 | 100 | 102 | 100 | 99 | C/C=C/c1cc(Nc2cc(N3CCC(N(CC)CC)C3)nc(Oc3cc(F)c4[nH]c(C)cc4c3F)n2)n[nH]1 (stereo not drawn) [Compound 94]
107 | 93 | 100 | 97 | 99 | 100 | CC(=O)N1CCN(c2cc(Nc3cc(C4CC4)[nH]n3)nc(Oc3ccc4[nH]c(C)cc4c3F)n2)CC1 [Compound 18]
110 | 95 | 98 | 101 | 97 | 98 | Cc1cc2c(F)c(Oc3nc(Nc4cc(C5CC5)[nH]n4)cc(N4CCOC(CN)C4)n3)ccc2[nH]1 (stereo not drawn) [Compound 39]
107 | 95 | 99 | 102 | 107 | 101 | Cc1cc2c(F)c(Oc3nc(Nc4cc(C5CC5)[nH]n4)cc(N4CCN(CCF)CC4)n3)ccc2[nH]1 [Compound 45]
112 | 91 | 98 | 101 | 96 | 99 | Cc1cc(Nc2cc(N3CCN(CCO)CC3)nc(Oc3cc(F)c4[nH]c(C)cc4c3F)n2)n[nH]1 [Compound 105]

Second part, the molecule before the results:

SMILES | inhibition at 1 µM (Abl(h)) [%] | inhibition at 1 µM (KDR(h)) [%] | inhibition at 1 µM (Aurora-A(h)) [%] | inhibition at 1 µM (Ret(h)) [%] | inhibition at 1 µM (cSRC(h)) [%] | inhibition at 1 µM (Flt3(h)) [%]
Cc1cc2c(F)c(Oc3nc(Nc4cc(C5CC5)[nH]n4)cc(N4CCNC(CO)C4)n3)ccc2[nH]1 (stereo not drawn) [Compound 43] | 111 | 95 | 87 | 102 | 101 | 99
C/C=C/c1cc(Nc2cc(N3CCN(C)CC3)nc(Oc3cc(F)c4[nH]c(C)cc4c3F)n2)n[nH]1 [Compound 87] | 112 | 95 | 99 | 83 | 95 | 100
Cc1cc2c(F)c(Oc3nc(Nc4cc(C5CC5)[nH]n4)cc(N4CCN(CCN(C)C)CC4)n3)ccc2[nH]1 [Compound 42] | 110 | 96 | 93 | 102 | 101 | 100
C/C=C/c1cc(Nc2cc(N3CCC(O)C3)nc(Oc3ccc4[nH]c(C)cc4c3F)n2)n[nH]1 (stereo not drawn) [Compound 61] | 112 | 97 | 95 | 102 | 100 | 100
C/C=C/c1cc(Nc2cc(N3CCN(C)CC3)nc(Oc3ccc4[nH]c(C)cc4c3Cl)n2)n[nH]1 [Compound 112] | 113 | 91 | 100 | 102 | 104 | 102
C/C=C/c1cc(Nc2cc(N3CCN(C(C)=O)CC3)nc(Oc3ccc4[nH]c(C)cc4c3F)n2)n[nH]1 [Compound 56] | 111 | 96 | 99 | 101 | 100 | 99
CCN1CCN(c2cc(Nc3cc(C4CC4)[nH]n3)nc(Oc3ccc4[nH]c(C)cc4c3F)n2)CC1 [Compound 31] | 115 | 91 | 101 | 102 | 104 | 101
Cc1cc2c(F)c(Oc3nc(Nc4cc(C5CC5)[nH]n4)cc(N4CCN(c5ccncc5)CC4)n3)ccc2[nH]1 [Compound 27] | 108 | 92 | 101 | 101 | 99 | 100
C/C=C/c1cc(Nc2cc(N3CCS(=O)(=O)CC3)nc(Oc3ccc4[nH]c(C)cc4c3F)n2)n[nH]1 [Compound 57] | 111 | 95 | 96 | 102 | 99 | 100
C/C=C/c1cc(Nc2cc(N3CCOCC3)nc(Oc3cc(F)c4[nH]c(C)cc4c3F)n2)n[nH]1 [Compound 89] | 112 | 96 | 100 | 99 | 100 | 100
Cc1cc2c(F)c(Oc3nc(Nc4cc(C5CC5)[nH]n4)cc(N4CCC(F)CC4)n3)ccc2[nH]1 [Compound 22] | 108 | 92 | 101 | 101 | 100 | 100
